The values that follow come from US20150266864A1, “HETEROAROMATIC COMPOUNDS, METHOD FOR PREPARING THE COMPOUNDS, PHARMACEUTICAL COMPOSITIONS, USES AND METHOD FOR TREATING ACUTE AND CHRONIC PAIN” (CRISTÁLIA PRODUTOS QUÍMICOS FARMACÊUTICOS LTDA, priority 2012, published 2015).

Structures are written as SMILES.

The test system of data set [1] is rats subjected to SNL. The experiment in a line: Spinal nerve ligation (SNL) L5 model, thermal hyperalgesia. In kind it is in vivo, rat.
Data set [2] concerns Swiss mice. The experiment in a line: Hot plate model, assay for acute pain. In kind it is in vivo. As to conditions: ip, 32.25 μmol/kg.
Data set [3] concerns rats subjected to SNL. As to the kind of experiment: Spinal nerve ligation (SNL) L5 model, mechanical allodynia (digital Von Frey). It is filed as in vivo, rat. The settings on record: after the first day of treatment, p<0.05.
For data set [4], the system named is Swiss mice. As to the kind of experiment: Hot plate model, assay for acute pain. It is filed as in vivo. The settings on record: ip, 32.25 μmol/kg, plate 52° C., compared to morphine sulfate at the same dose. From the text: The antinociceptive activity (AA) of the present invention selected compounds (C3, C9, C11, C12, C13, C15 and C17) was investigated in hot plate model [Hot Plate Model LE7406, Scientific Inc.] described by Kuraishi et al. [Kuraishi, Y., Harada, Y., Aratani, S., Satoh, M., Takagi, H. Brain Research 1983.273, 245-2523]. This method is valid to evaluate the analgesic activity of substances acting on the central nervous system. Swiss mice weighing 20-25 g were placed on a metal plate heated up to 52° C. The animals were withdrawn from the hot plate at the time they lead their forepaws toward the mouth to lick, being this an indicative of pain second Le Bars et al. [Le Bars, D., Gozariu, M., Cadden, S. W. Animal models of nociception. Pharmacol. Rev. 2001, 53 (4), 597-652]. In this way, it was analyzed how long the animal, treated or not (control) with the analgesic substance, remained on the plate at 52° C.; the longest residence time of an animal on the plate was 35 seconds. This time limit (or cut off) (35 s) was determined by the average of three measurements of latency control values, obtained for each animal multiplied by three, to prevent any kind of tissue injury on the footpad of animals's paw due to long permanence on the heated surface. The protocol consisted in the intraperitoneal (ip) injection of the selected compounds of the present invention at a dose of 32.25 μmol/kg. The antinociceptive activity was evaluated at intervals of 10 minutes until effect completely disappear and, compared to morphine sulfate ([…]) at the same dose of 32.25 μmoles/kg (12.2 mg/kg). The investigated parameter is the latency of reflex to paw withdrawal in response to thermal stimulus. The results were expressed as percentage of AA, which was calculated according to Equation 1 for each experiment.

Regarding `Cl.Cl.Fc1ccc(-c2n[nH]cc2CCN2CCCCC2)cc1.O` [C3, 1-{2-[3-(4-fluorophenyl)-1H-pyrazol-4-yl]ethyl}piperidine dihydrochloride monohydrate], the “paw withdrawal latency, thermal hyperalgesia” value in the data set on rats subjected to SNL [1] (oral 30 mg/kg, after 7 days of treatment) is “significantly increased the paw withdrawal latency”; in the data set with rats subjected to SNL [1] (oral 100 mg/kg, after 1 day of treatment), “significantly increased the paw withdrawal latency”. In the data set with Swiss mice [2], the “side effects compared to morphine” value is recorded as “no side effects of conventional morphine”. Besides, the “reversion of the signs of mechanical allodynia” value in the data set with rats subjected to SNL [3] (oral 30 mg/kg) and in the data set with rats subjected to SNL [3] (oral 100 mg/kg) was “reversion of the signs of mechanical allodynia” throughout. The “antinociceptive activity (AA), hot plate” value with Swiss mice [4] was “exhibit antinociceptive activity of intensity and kinetics similar to morphine sulfate”.

Take `CN1CCN(CCc2c[nH]nc2-c2ccc(F)cc2)CC1.Cl.Cl.Cl.O.O` [C11, 1-{2-[3-(4-fluorophenyl)-1H-pyrazol-4-yl]ethyl}-4-methylpiperazine trihydrochloride dihydrate]: the “side effects compared to morphine” value with Swiss mice [2] is listed as “no side effects of conventional morphine”. In addition, the “antinociceptive activity (AA), hot plate” value with Swiss mice [4] was “exhibit antinociceptive activity of intensity and kinetics similar to morphine sulfate”.

On to `Cl.OC1(c2ccc(Cl)cc2)CCN(CCc2conc2-c2ccc(F)cc2)CC1` [C15, 4-(4-chlorophenyl)-1-{2-[3-(4-fluorophenyl)-1,2-oxazol-4-yl]ethyl}piperidin-4-ol hydrochloride], for which the melting point is 222 to 226 °C (dec.). For the same compound, the “side effects compared to morphine” value in the data set on Swiss mice [2] was “no side effects of conventional morphine”. In the data set with Swiss mice [4], the “antinociceptive activity (AA), hot plate” value is “exhibit antinociceptive activity of intensity and kinetics similar to morphine sulfate”.

As to `Cl.Cl.Fc1ccc(-c2n[nH]cc2CCN2CCOCC2)cc1.O` [C9, 4-{2-[3-(4-fluorophenyl)-1H-pyrazol-4-yl]ethyl}morpholine dihydrochloride monohydrate], the “side effects compared to morphine” value in the data set on Swiss mice [2] is “no side effects of conventional morphine”. Besides, the “antinociceptive activity (AA), hot plate” value with Swiss mice [4] is “exhibit antinociceptive activity of intensity and kinetics similar to morphine sulfate”.

Turning to `CCOC(=O)C1(c2ccccc2)CCN(CCc2conc2-c2ccc(F)cc2)CC1.Cl` [C17, Ethyl 1-{2-[3-(4-fluorophenyl)-1,2-oxazol-4-yl]ethyl}-4-phenylpiperidine-4-carboxylate hydrochloride], the “side effects compared to morphine” value in the data set with Swiss mice [2] is recorded as “no side effects of conventional morphine”. In addition, the “antinociceptive activity (AA), hot plate” value in the data set with Swiss mice [4] is “exhibit antinociceptive activity of intensity and kinetics similar to morphine sulfate”.

For orientation: melting point means the temperature, or range, at which the solid turns liquid.
